# Assays:
# [1] = system: fibroblasts as donor cells; conditions: donor fibroblasts cultured with agent prior to nuclear transfer; Non-patent Document 1; cited from earlier work
# [2] = system: cloned embryos derived from cumulus cells; assay: Methylation of DNA and histone H3 Lys9 in cloned embryos; type: cell-based, mouse; conditions: 500 nM TSA for 15 hours; FIG. 9
# Experimental: Cloned embryos derived from cumulus cells were produced using oocytes from B6D2F1 mice produced according to the method as described in Example 1, and cultured in the presence or absence of 500 nM TSA for 15 hours (including the activation period). Then, the nuclear transfer embryos were fixed, and methylation of DNA (DNA metC) and methylation of histone H3 Lys9 (H3K9 trimet) were examined using antibodies against the respective antigens. Furthermore, DNA was stained with DAPI. 15 cloned embryos were used for each group. The results are shown in FIG. 9 along with the merged images (Merge).
# [3] = system: bovine reconstructed embryos; assay: Early embryonic development of bovine reconstructed embryos; type: cell-based; conditions: for Number of cleaved embryos / Cleavage rate (cleaved embryos to cultured embryos): 48 hours postactivation; for Number of embryos at the blastocyst stage: 168 hours postactivation
# Experimental: Bovine ovaries collected from sacrificed cows at a local slaughterhouse were stored in physiological saline at 25° C. and transported to the laboratory within 6 to 8 hours after slaughter. Bovine oocytes were harvested by aspiration of follicular fluids from follicles with diameters of 2 to 5 mm on the surfaces of bovine ovaries using 21G injection needles (Terumo, Tokyo, Japan) and 10-ml syringes (Terumo). Only oocyte-cumulus cell complexes to which 2 to 4 layers of cumulus cells were attached were selected and collected from the harvested follicular fluids. The collected oocyte-cumulus cell complexes were introduced into drops of 50 μl maturation medium under mineral oil (Sigma, USA) and cultured for 21 hours at 39° C. under 5% CO2 and 95% air at saturation humidity. The maturation medium was prepared by adding 0.02 AU/ml of follicle-stimulating hormone (FSH, Antrin, Kawasaki Seiyaku, Kanagawa, Japan) and 1 μg/ml estradiol 17-β (Sigma) to 25 mM HEPES buffered TCM-199 (Earle's salts, Gibco, m-TCM199E) supplemented with 5% (v/v) new born calf serum (NBCS, Gibco, N.Y., USA) and 25 μg/ml of gentamicin solution (Sigma).
# The oocyte-cumulus cell complexes matured for 21 hours were allowed to stand for 5 minutes in a solution containing 5% NBCS and 25 μg/ml gentamicin solution (Sigma) in 25 mM HEPES-buffered TCM-199 (Hank's salts, Gibco, m-TCM199H) containing 0.25% (w/v) hyaluronidase (Sigma). Then, the cumulus cells attached around the oocytes were fully removed by pipetting.
# The oocytes from which the cumulus cells had been removed were transferred to m-TCM119H and only oocytes with the first polar bodies had been emitted were selected under an inverted microscope. Zonae pellucidae above each first polar bodies were incised using a fine glass needle for removing nuclei from the oocytes, and the oocytes were transferred to m-TCM119H supplemented with 5 μg/ml cytochalacin B (Sigma) and allowed to stand for 15 minutes. Each oocyte was held from the upside using the glass needle used for incising zona pellucida, and enucleation was carried out by removing the first polar body and the oocyte cytoplasm neighboring the first polar body corresponding to about 10 to 20% of the oocyte cytoplasm volume from the zona pellucida incision site. The removed oocyte cytoplasm was transferred to m-TCM199E containing 20 μg/ml of Hoechst 33342 (Sigma) and stained at 39° C. under 5% CO2 and 95% air at saturated humidity for 30 minutes, and the enucleation was confirmed by judging the presence of nucleus in the enucleated oocyte cytoplasm under UV irradiation.
# Fibroblasts derived from an auricle of Japanese black cattle calves were used as donor cells for nuclear transfer. The donor cells were cultured to 80% confluency in Dulbecco's modified Eagle medium (DMEM, Nissui, Tokyo, Japan) supplemented with 10% (v/v) fetal bovine serum (FBS, Funakoshi, Tokyo, Japan). The culture medium was then exchanged for DMEM supplemented with 0.4% FBS, and the cells were cultured under serum-starvation conditions for 7 days. The cells cultured under serum-starvation conditions were isolated from the culture dishes using a 0.25% (w/v) solution of trypsin (Sigma) containing 0.04% (w/v) disodium dihydrogen ethylenediaminetetraacetic acid (EDTA, Nacalai Tesque, Kyoto, Japan). The cells were harvested by centrifugation in a centrifuge tube, and suspended in a phosphate buffered saline (PBS, Gibco) (−) solution containing 10% (w/v) polyvinylpyrrolidone (PVP, Nacalai Tesque). The isolated cells were aspirated into a micro-glass pipette for cell introduction, and introduced from the zona pellucida incision sites into the perivitelline spaces of the recipient enucleated oocytes. […]
# [4] = TSA in the culture medium, 5-500 nM
smiles,measurement,setting,value
"CC(/C=C/C(=O)NO)=C\[C@@H](C)C(=O)c1ccc(N(C)C)cc1 [TSA, trichostatin A]",blastocyst development rate,[1],increased
same,methylation of DNA and histone H3 Lys9 in other chromosomal portions,[2],reduction in methylation of both was observed
same,methylation of DNA and histone H3 Lys9 in the pericentromeric region,[2],prominent reduction was not observed
same,Cell number ± SEM of blastocysts,[3]; TSA 5 nM for 48 hours,89 ± 6
same,Number of cleaved embryos,"[3]; TSA 5 nM for 48 hours, 106 cultured embryos",85
same,Cleavage rate (cleaved embryos to cultured embryos),[3]; TSA 5 nM for 48 hours,80%
same,Number of embryos at the blastocyst stage,[3]; TSA 5 nM for 48 hours,28
same,Cell number ± SEM of blastocysts,[3]; TSA 50 nM for 48 hours,83 ± 6
same,Number of cleaved embryos,"[3]; TSA 50 nM for 48 hours, 97 cultured embryos",73
same,Cleavage rate (cleaved embryos to cultured embryos),[3]; TSA 50 nM for 48 hours,75%
same,Number of embryos at the blastocyst stage,[3]; TSA 50 nM for 48 hours,29
same,Cell number ± SEM of blastocysts,[3]; TSA 500 nM for 48 hours,92 ± 8
same,Number of cleaved embryos,"[3]; TSA 500 nM for 48 hours, 97 cultured embryos",73
same,Cleavage rate (cleaved embryos to cultured embryos),[3]; TSA 500 nM for 48 hours,75%
same,Number of embryos at the blastocyst stage,[3]; TSA 500 nM for 48 hours,5
same,increase in blastocyst development rate,[3]; TSA at a certain concentration for a certain period of time,about 2 fold
same,influence on cell number of blastocysts,[3]; [4],did not influence
same,influence on cleavage rate,[3]; [4],did not influence

# — patent US20090055945A1, “Method for Producing Nuclear-Transplanted Egg” (priority 2005, published 2009)
